The text below walks through data of US10251394B2, “Molecules having pesticidal utility, and intermediates, compositions, and processes, related thereto” (Dow AgroSciences LLC, priority 2016, dated 2019).

Assay [1] has as its system Cabbage Looper (Trichoplusia ni). The assay is described as follows: Bioassay on Cabbage Looper (CL), 128-well diet tray assay. Format: in vivo. The following applies: for mortality at 0.05 µg/cm2 / mortality at 0.5 µg/cm2 / mortality at 5 µg/cm2: 168 h, second instar larvae, five to seven days, read-out: CL Percent control (or mortality); for mortality at 0.05 µg/cm2: 0.05 μg/cm^2 on artificial diet; for mortality at 0.5 µg/cm2: 0.5 μg/cm^2 on artificial diet; for mortality at 5 µg/cm2: 5 μg/cm^2 on artificial diet; for pest or weed control at 50 µg/cm2: Cabbage Looper, Table ABC, read-out: CL rating. As for the experimental part:
(§1) Example A: Bioassays on Beet Armyworm (Spodoptera Exigua, LAPHEG) (“BAW”), Corn Earworm (Helicoverpa Zea, HELIZE) (“CEW”), and Cabbage Looper (Trichoplusia Ni, TRIPNI) (“CL”)
(§2) Certain molecules disclosed in this document were tested against BAW, CEW, and CL using procedures described in the following examples. In the reporting of the results, the “BAW, CEW, & CL Rating Table” was used (See Table Section).
Bioassays on CL were conducted using a 128-well diet tray assay. One to five second instar CL larvae were placed in each well (3 mL) of the diet tray that had been previously filled with 1 mL of artificial diet to which 50 μg/cm^2 of the test molecule (dissolved in 50 μL of 90:10 acetone-water mixture) had been applied (to each of eight wells) and then allowed to dry. Trays were covered with a clear self-adhesive cover and held at 25° C., 14:10 light-dark for five to seven days. Percent mortality was recorded for the larvae in each well; activity in the eight wells was then averaged. The results are indicated in the table entitled “Table ABC: Biological Results” (See Table Section).
(§3) Bioassays on BAW and CL were conducted according to the procedures outlined in Example A: Bioassays on Beet Armyworm (“BAW”) and Cabbage Looper (“CL”) using the indicated concentrations.

The test system of assay [2] is Beet Armyworm (Spodoptera exigua). Kind of assay: Bioassay on Beet Armyworm (BAW), 128-well diet tray assay. The format is in vivo. The following applies: for mortality at 0.05 µg/cm2 / mortality at 0.5 µg/cm2 / mortality at 5 µg/cm2: 168 h, second instar larvae, five to seven days, read-out: BAW Percent control (or mortality); for mortality at 0.05 µg/cm2: 0.05 μg/cm^2 on artificial diet; for mortality at 0.5 µg/cm2: 0.5 μg/cm^2 on artificial diet; for mortality at 5 µg/cm2: 5 μg/cm^2 on artificial diet; for pest or weed control at 50 µg/cm2: Beet Armyworm, Table ABC, read-out: BAW rating. The protocol:
as §1, §2
Bioassays on BAW were conducted using a 128-well diet tray assay. One to five second instar BAW larvae were placed in each well (3 mL) of the diet tray that had been previously filled with 1 mL of artificial diet to which 50 μg/cm^2 of the test molecule (dissolved in 50 μL of 90:10 acetone-water mixture) had been applied (to each of eight wells) and then allowed to dry. Trays were covered with a clear self-adhesive cover and held at 25° C., 14:10 light-dark for five to seven days. Percent mortality was recorded for the larvae in each well; activity in the eight wells was then averaged. The results are indicated in the table entitled “Table ABC: Biological Results” (See Table Section).
as §3

With `O=C(CNC(=O)c1ccc(/C(F)=C/C(c2cc(Cl)c(Cl)c(Cl)c2)C(F)(F)F)cc1C(F)(F)F)NCC(F)(F)F` (stereo not shown) [F1, (Z)—N-(2-oxo-2-((2,2,2-trifluoroethyl)amino)ethyl)-4-(1,4,4,4-tetrafluoro-3-(3,4,5-trichlorophenyl)but-1-en-1-yl)-2-(trifluoromethyl)benzamide], in assay [1], the mortality at 0.05 µg/cm2 stood at 100%, the mortality at 0.5 µg/cm2 turned out to be 100%, the mortality at 5 µg/cm2 was 100% and the pest or weed control at 50 µg/cm2 was in the range of 50 to 100%. In assay [2], the mortality at 0.05 µg/cm2 was 100%, the mortality at 0.5 µg/cm2 was 100%, the mortality at 5 µg/cm2 came out at 100% and the pest or weed control at 50 µg/cm2 lay in the range of 50 to 100%.

For `C[C@@H](NC(=O)c1ccc(/C(F)=C/C(c2cc(Cl)c(Cl)c(Cl)c2)C(F)(F)F)cc1C(F)(F)F)C(=O)NCC(F)(F)F` (stereo partly drawn) [F2, N—((R)-1-Oxo-1-((2,2,2-trifluoroethyl)amino)propan-2-yl)-4-((Z)-1,4,4,4-tetrafluoro-3-(3,4,5-trichlorophenyl)but-1-en-1-yl)-2-(trifluoromethyl)benzamide], in assay [1], the mortality at 0.05 µg/cm2 stood at 100%, the mortality at 0.5 µg/cm2 came to 100%, the mortality at 5 µg/cm2 worked out at 100% and the pest or weed control at 50 µg/cm2 lay in the range of 50 to 100%. Besides, in assay [2], the mortality at 0.05 µg/cm2 turned out to be 100%, the mortality at 0.5 µg/cm2 is 100%, the mortality at 5 µg/cm2 stood at 100% and the pest or weed control at 50 µg/cm2 was 50 to 100%.

With `O=C(NC1(C(=O)NCCC2CC2)CC1)c1ccc(/C(F)=C/C(c2cc(Cl)c(Cl)c(Cl)c2)C(F)(F)F)cc1C(F)(F)F` (stereo not shown) [F4, (Z)—N-(1-((2-cyclopropylethyl)carbamoyl)cyclopropyl)-4-(1,4,4,4-tetrafluoro-3-(3,4,5-trichlorophenyl)but-1-en-1-yl)-2-(trifluoromethyl)benzamide], the pest or weed control at 50 µg/cm2 in assay [1] and in assay [2] was 50 to 100% each time.

On to `C=CCNC(=O)C1(NC(=O)c2ccc(/C(F)=C/C(c3cc(Cl)c(Cl)c(Cl)c3)C(F)(F)F)cc2C(F)(F)F)CC1` (stereo not shown) [F5, (Z)—N-(1-(Allylcarbamoyl)cyclopropyl)-4-(1,4,4,4-tetrafluoro-3-(3,4,5-trichlorophenyl)but-1-en-1-yl)-2-(trifluoromethyl)benzamide], for which the pest or weed control at 50 µg/cm2 in assay [1] and in assay [2] was 50 to 100% each time.

As for `Cc1cc(/C(F)=C/C(c2cc(Cl)c(Cl)c(Cl)c2)C(F)(F)F)ccc1C(=O)NCC(=O)NCC(F)(F)F` (stereo not shown) [F6, (Z)-2-Methyl-N-(2-oxo-2-((2,2,2-trifluoroethyl)amino)ethyl)-4-(1,4,4,4-tetrafluoro-3-(3,4,5-trichlorophenyl)but-1-en-1-yl)benzamide], in assay [1], the mortality at 0.05 µg/cm2 amounted to 100%, the mortality at 0.5 µg/cm2 came to 100% and the pest or weed control at 50 µg/cm2 lay within 50 to 100%. Further, in assay [2], the mortality at 0.05 µg/cm2 worked out at 100%, the mortality at 0.5 µg/cm2 worked out at 100% and the pest or weed control at 50 µg/cm2 lay within 50 to 100%.

For `Cc1cc(/C(F)=C/C(c2cc(Cl)c(Cl)c(Cl)c2)C(F)(F)F)ccc1C(=O)N[C@H](C)C(=O)NCC(F)(F)F` (stereo partly drawn) [F7, 2-Methyl-N—((R)-1-oxo-1-((2,2,2-trifluoroethyl)amino)propan-2-yl)-4-((Z)-1,4,4,4-tetrafluoro-3-(3,4,5-trichlorophenyl)but-1-en-1-yl)benzamide], in assay [1], the mortality at 0.05 µg/cm2 came out at 100%, the mortality at 0.5 µg/cm2 is 100% and the pest or weed control at 50 µg/cm2 lay within 50 to 100%. Also, in assay [2], the mortality at 0.05 µg/cm2 was found to be 100%, the mortality at 0.5 µg/cm2 is 100% and the pest or weed control at 50 µg/cm2 lay within 50 to 100%.

Consider `Cc1cc(/C(F)=C/C(c2cc(Cl)c(Cl)c(Cl)c2)C(F)(F)F)ccc1C(=O)NC1(C(=O)NCC(F)(F)F)CC1` (stereo not shown) [F8, (Z)-2-Methyl-4-(1,4,4,4-tetrafluoro-3-(3,4,5-trichlorophenyl)but-1-en-1-yl)-N-(1-((2,2,2-trifluoroethyl)carbamoyl)cyclopropyl)benzamide], for which the pest or weed control at 50 µg/cm2 in assay [1] and in assay [2] was 50 to 100% throughout.

What is called mortality is the share of the test organisms that died.
